Laboratory results taken from ChEMBL document CHEMBL5137017, “Identification of NVP-CLR457 as an Orally Bioavailable Non-CNS-Penetrant pan-Class IA Phosphoinositol-3-Kinase Inhibitor” (J Med Chem, 2022).

Assays:
[1] = target: T1, Tubulin (Homo sapiens) (UniProt P68371+Q9H4B7+P0DPH7+P68366+Q13509+Q71U36+P04350+Q3ZCM7+P07437+P68363+Q9BQE3+Q6PEY2+Q13885+Q9BVA1+Q9BUF5); assay: Binding affinity to tubulin in human A2058 cells assessed as condensed DNA score at 5 uM measured after 6 hrs by DiffQuick staining based microscopic analysis; assay type: cell-based
[2] = target: T2, Serine/threonine-protein kinase mTOR (Homo sapiens, UniProt P42345); assay: Displacement of Alexa Fluor labelled Tracer-314 from human N-terminal GST-tagged mTOR incubated for 1 hr by TR-FRET assay
[3] = cells; conditions: Rattus norvegicus, Rat1, 1 h
[4] = target: T1, Tubulin (Homo sapiens); assay: Binding affinity to tubulin in human A2058 cells assessed as condensed DNA score at 5 uM measured after 24 hrs by DiffQuick staining based microscopic analysis; assay type: cell-based
[5] = Brain to blood ratio in OF1 mouse at 1 mg/kg, iv measured at 1 hr post dose by LC-MS/MS analysis; assay type: ADME, organism-based; conditions: brain and blood, read-out: BBR
[6] = Brain to blood ratio in OF1 mouse at 1 mg/kg, iv measured at 5 mins post dose by LC-MS/MS analysis; assay type: ADME, organism-based; conditions: brain and blood, read-out: BBR
[7] = Volume of distribution at steady state in Sprague-Dawley rat at 3 mg/kg, po or iv measured upto 24 hrs by LC-MS/MS analysis; assay type: ADME, organism-based; conditions: in vivo
[8] = Drug concentration in OF1 mouse blood at 1 mg/kg, iv measured at 5 mins post dose by LC-MS/MS analysis; assay type: ADME, organism-based; conditions: whole blood, read-out: Ct
[9] = Drug concentration in OF1 mouse brain at 1 mg/kg, iv measured at 1 hr post dose by LC-MS/MS analysis; assay type: ADME, organism-based; conditions: in vivo
[10] = Stability in rat liver microsomes assessed as hepatic extraction preincubated for 3 mins followed by NADPH addition and measured after 60 mins; assay type: ADME, Microsome; conditions: read-out: ERH
[11] = Oral bioavailability in Sprague-Dawley rat at 3 mg/kg measured for 0.25 to 24 hrs by LC-MS/MS analysis; assay type: ADME, organism-based; conditions: in vivo, time 0.25-24 hrs
[12] = Stability in mouse liver microsomes assessed as hepatic extraction preincubated for 3 mins followed by NADPH addition and measured after 60 mins; assay type: ADME, Microsome; conditions: time 63 min, read-out: ERH
[13] = Drug concentration in OF1 mouse brain at 1 mg/kg, iv measured at 5 mins post dose by LC-MS/MS analysis; assay type: ADME, organism-based; conditions: in vivo
[14] = Half life in Sprague-Dawley rat at 3 mg/kg, po or iv measured upto 24 hrs by LC-MS/MS analysis; assay type: ADME, organism-based; conditions: in vivo
[15] = AUC in Sprague-Dawley rat at 1 mg/kg, iv measured for 0.083 to 48 hrs by LC-MS/MS analysis; assay type: ADME, organism-based; design: time upper 48 hrs, dose 1 mg/kg, time lower 0.083 hrs, route iv; conditions: in vivo
[16] = Stability in human liver microsomes assessed as hepatic extraction preincubated for 3 mins followed by NADPH addition and measured after 60 mins; assay type: ADME, Microsome; conditions: read-out: ERH
[17] = Drug concentration in OF1 mouse blood at 1 mg/kg, iv measured at 1 hr post dose by LC-MS/MS analysis; assay type: ADME, organism-based; conditions: whole blood, read-out: Ct
[18] = target: T2, Serine/threonine-protein kinase mTOR; assay: Binding affinity to human N-terminal GST-tagged mTOR assessed as phosphorylated 4EBP1 by TR-FRET assay
[19] = 1-octanol, logP of the compound at pH 7.4; assay type: physicochemical

Question: For `Nc1cc(C(F)(F)F)c(-c2cc(N3CCN(c4ccccc4)C3=O)nc(N3CCOCC3)n2)cn1`, which Activity [1] is on record?
Answer: The Activity was under 2%.

Question: What about the IC50 [2] of the same compound?
Answer: The IC50 was 6200 nM.

Question: And the IC50 [3]?
Answer: Its IC50 is 1460 nM.

Question: And the Activity [4]?
Answer: The Activity was under 2%.

Question: What does the source list for `Nc1cc(C(F)(F)F)c(-c2cc(N3CCCCC3=O)nc(N3CCOCC3)n2)cn1`?
Answer: Activity [1]: < 2%; IC50 [2]: 5060 nM; IC50 [3]: 1040 nM; Activity [4]: < 2%

Question: With `CNC(=O)N(CCO)c1cc(-c2cnc(N)cc2C(F)(F)F)nc(N2CCOCC2)n1` as the compound, how does the IC50 [3] read?
Answer: The IC50 was 3660 nM.

Question: And the Kp at 1 h [5]?
Answer: The Kp at 1 h was 0.12.

Question: What about the Kp at 5 min [6] of the same compound?
Answer: Its Kp at 5 min is 0.23.

Question: With `C[C@]1(CO)COC(=O)N1c1nc(-c2cnc(N)nc2C(F)(F)F)cc(N2CCOCC2)n1` as the compound, how does the IC50 [2] read?
Answer: Its IC50 is 3610 nM.

Question: And the IC50 [3]?
Answer: Its IC50 is 172 nM.

Question: Which IC50 [2] does the source give for `C[C@H](O)[C@@H]1COC(=O)N1c1nc(-c2cnc(N)nc2C(F)(F)F)cc(N2CCOCC2)n1` here?
Answer: Its IC50 is 1340 nM.

Question: What about the IC50 [3] of the same compound?
Answer: The IC50 was 83 nM.

Question: Which results are given for `C[C@H]1COC(=O)N1c1nc(-c2cnc(N)nc2C(F)(F)F)cc(N2CCOCC2)n1`?
Answer: Vdss [7]: 4.4 L/kg; concentration at 5 min [8]: 1640 nM; IC50 [2]: 2880 nM; Ct [9]: 553 pmol/g; hepatic extraction ratio at 1 h [10]: 0.67; IC50 [3]: 28 nM; Kp at 1 h [5]: 0.9; bioavailability [11]: 46%; hepatic extraction ratio at 1 h [12]: 0.27; Kp at 5 min [6]: 1.11; Ct [13]: 1813 pmol/g; half-life [14]: 1.2 h; AUC [15]: 0.762 µM·h; hepatic extraction ratio at 1 h [16]: 0.54; concentration at 1 h [17]: 616 nM

Question: For `Nc1cc(C(F)(F)F)c(-c2cc(N3CCOCC3)nc(N3CCOCC3)c2)cn1`, which IC50 [18] is on record?
Answer: Its IC50 is over 9100 nM.

Question: What about the Activity [1] of the same compound?
Answer: Its Activity is 6%.

Question: And the IC50 [3]?
Answer: Its IC50 is 2830 nM.

Question: And the Activity [4]?
Answer: The Activity was over 12%.

Question: Which results are given for `Nc1ncc(-c2cc(N3CCOCC3)nc(N3C[C@H](CO)OC3=O)n2)c(C(F)(F)F)n1`?
Answer: IC50 [2]: 2180 nM; IC50 [3]: 111 nM

Question: With `C[C@H]1OC(=O)N(c2nc(-c3cnc(N)nc3C(F)(F)F)cc(N3CCOCC3)n2)[C@H]1CN1CC[S+]([O-])CC1` as the compound, how does the IC50 [3] read?
Answer: The IC50 was over 10000 nM.

Question: Which results are given for `COc1ccc2c(c1)OCCN2c1cc(-c2cnc(N)nc2)nc(N2CCOCC2)n1`?
Answer: IC50 [18]: > 9100 nM; Activity [1]: > 12%; IC50 [3]: 239 nM; Kp at 1 h [5]: 1.91; Kp at 5 min [6]: 3.23; Activity [4]: 6%

Question: With `C[C@H]1[C@@H](CO)OC(=O)N1c1nc(-c2cnc(N)nc2C(F)(F)F)cc(N2CCOCC2)n1` as the compound, how does the IC50 [2] read?
Answer: Its IC50 is 1720 nM.

Question: What about the IC50 [3] of the same compound?
Answer: Its IC50 is 30 nM.

Question: For `Nc1ncc(-c2cc(N3CCOCC3)nc(N3C[C@@H](CO)OC3=O)n2)c(C(F)(F)F)n1`, which IC50 [2] is on record?
Answer: The IC50 was over 9100 nM.

Question: What about the IC50 [3] of the same compound?
Answer: Its IC50 is 101 nM.

Question: Which IC50 [3] does the source give for `Nc1cc(C(F)(F)F)c(-c2cc(N3CCNC3=O)nc(N3CCOCC3)n2)cn1` here?
Answer: Its IC50 is 431 nM.

Question: What about the logD [19] of the same compound?
Answer: The logD was 2.6.

Question: For `C[C@H]1COC(=O)N1c1nc(-c2cnc(N)cc2C(F)(F)F)cc(N2CCOCC2)n1`, which IC50 [3] is on record?
Answer: Its IC50 is 1760 nM.

Question: And the Kp at 1 h [5]?
Answer: The Kp at 1 h was 0.11.

Question: What about the Kp at 5 min [6] of the same compound?
Answer: Its Kp at 5 min is 0.11.

Question: With `Nc1ncc(-c2cc(N3CCOCC3)nc(N3C(=O)OC[C@@H]3CO)n2)c(C(F)(F)F)n1` as the compound, how does the IC50 [2] read?
Answer: Its IC50 is 3880 nM.

Question: What about the IC50 [3] of the same compound?
Answer: Its IC50 is 63 nM.

Question: Which IC50 [2] does the source give for `Nc1cc(C(F)(F)F)c(-c2cc(N3CCOC3=O)nc(N3CCOCC3)n2)cn1` here?
Answer: The IC50 was 6800 nM.

Question: And the IC50 [3]?
Answer: The IC50 was 1070 nM.

Question: What about the logD [19] of the same compound?
Answer: Its logD is 2.7.

Question: With `Nc1ncc(-c2cc(N3CCOCC3)nc(N3C(=O)O[C@@H]4COC[C@@H]43)n2)c(C(F)(F)F)n1` as the compound, how does the IC50 [2] read?
Answer: The IC50 was 2000 nM.

Question: And the IC50 [3]?
Answer: Its IC50 is 61 nM.

Question: For `Nc1cc(C(F)(F)F)c(-c2cc(N3CCOC(c4ccccc4)C3)nc(N3CCOCC3)n2)cn1` (racemic), which IC50 [3] is on record?
Answer: Its IC50 is 2770 nM.

Question: What about the Kp at 1 h [5] of the same compound?
Answer: Its Kp at 1 h is 3.73.

Question: And the Kp at 5 min [6]?
Answer: The Kp at 5 min was 4.89.
